Earlier results in patent publication US8435497B2, “Formoterol of and ciclesonide combination” (Takeda GmbH, priority 2003, dated 2013).

Columns and labels:
[1] = relative to budesonide
[2] = not given; remark: listed apart in the source

CC(C)C(=O)OCC(=O)[C@@]12O[C@H](C3CCCCC3)O[C@@H]1C[C@H]1[C@@H]3CCC4=CC(=O)C=C[C@]4(C)[C@H]3[C@@H](O)C[C@@]12C [Ciclesonide, [11β,16α(R)]-16,17-[(Cyclohexylmethylen)bis(oxy)]-11-hydroxy-21-(2-methyl-1-oxopropoxy)pregna-1,4-dien-3,20-dion]
anti-inflammatory activity compared with budesonide [1]: higher | metabolism by liver oxidases (liver oxidases): very high | concentration of the drug in the lungs (lungs): high | absorption after oral administration (oral administration): only moderately absorbed | plasma half-life (plasma): low plasma half-life | systemic activity ([2]; in vivo): low systemic activity | systemic activity compared with budesonide ([2]; relative to budesonide): three times lower
